Biological target: T1, renin (Homo sapiens, UniProt P00797)
T1 construct: This test measures the formation of angiotensin I in human plasma; from tissue; host or cells: human plasma
T1 sequence (P00797 67-406): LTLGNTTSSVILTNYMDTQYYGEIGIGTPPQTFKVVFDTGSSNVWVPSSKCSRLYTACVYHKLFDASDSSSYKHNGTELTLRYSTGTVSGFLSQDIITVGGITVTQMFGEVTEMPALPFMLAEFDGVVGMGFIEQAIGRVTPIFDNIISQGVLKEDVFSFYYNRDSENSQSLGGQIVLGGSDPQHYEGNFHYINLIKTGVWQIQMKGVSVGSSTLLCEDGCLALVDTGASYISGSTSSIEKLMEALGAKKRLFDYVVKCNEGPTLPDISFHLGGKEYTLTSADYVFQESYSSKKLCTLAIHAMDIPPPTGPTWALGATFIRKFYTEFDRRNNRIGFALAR
Experiment: in vitro test according to Nussberger et al.: formation of angiotensin I in human plasma, radioimmunoassay
Format: biochemical
Details: range stated for the listed examples together, read-out: IC50, inhibition of the formation of angiotensin I
Protocol: One experimental method of detecting the action of renin inhibitors is by means of in vitro tests, in which the reduction of the formation of angiotensin I in different systems (human plasma, purified human renin together with synthetic or natural renin substrate) is measured. One in vitro test which is used is the one according to Nussberger et al. (1987) J. Cardiovascular Pharmacol., Vol. 9, p. 39-44 which follows. This test measures the formation of angiotensin I in human plasma. The amount of angiotensin I formed is determined in a subsequent radioimmunoassay. Which action inhibitors have on the formation of angiotensin I is tested in this system by the addition of different concentrations of these substances. The IC50 refers to that concentration of the particular inhibitor which reduces the formation of angiotensin I by 50%.

IC50 [nM] | Compound
74 to 2800 | COCCCN1C(=O)[C@](C)(c2ccccc2)Oc2ccc(CO[C@@H]3CC[C@@H](CC(C)(C)C(=O)NCC4CCOCC4)NC3)cc21 [Example 52, (S)-3-{(2S,5R)-5-[(S)-4-(3-Methoxypropyl)-2-methyl-3-oxo-2-phenyl-3,4-dihydro-2H-benzo[1,4]oxazin-6-ylmethoxy]piperidin-2-yl}-2,2-dimethyl-N-(tetrahydropyran-4-ylmethyl)propionamide]
74 to 2800 | COCCCN1CCOc2ccc(CO[C@@H]3CC[C@@H](CC(C)(C)C(=O)NCC4CC4)NC3)cc21 [Example 25, N-Cyclopropylmethyl-3-{(2S,5R)-5-[4-(3-methoxypropyl)-3,4-dihydro-2H-benzo[1,4]oxazin-6-ylmethoxy]piperidin-2-yl}-2,2-dimethylpropionamide]
74 to 2800 | COCCCOc1cc(CO[C@@H]2CC[C@@H](CC(C)(C)C(=O)NCC3CCOCC3)NC2)ccc1F [Example 42, 3-{(2S,5R)-5-[4-Fluoro-3-(3-methoxypropoxy)benzyloxy]piperidin-2-yl}-2,2-dimethyl-N-(tetrahydropyran-4-ylmethyl)propionamide]
74 to 2800 | COCCCN1CCOc2ccc(CO[C@@H]3CC[C@@H](CC(C)(C)C(=O)NCC(C)(C)C(N)=O)NC3)cc21 [Example 26, N-(2-Carbamoyl-2-methylpropyl)-3-{(2S,5R)-5-[4-(3-methoxypropyl)-3,4-dihydro-2H-benzo[1,4]oxazin-6-ylmethoxy]piperidin-2-yl}-2,2-dimethylpropionamide]
74 to 2800 | COCCCN1CCOc2ccc(CO[C@@H]3CC[C@@H](C[C@@H](NC(=O)CC4CCOCC4)C(C)C)NC3)cc21 [Example 89, N—((R(or S))-1-{(2S,5R)-5-[4-(3-Methoxypropyl)-3,4-dihydro-2H-benzo[1,4]oxazin-6-ylmethoxy]piperidin-2-ylmethyl}-2-methylpropyl)-2-(tetrahydropyran-4-yl)acetamide]

Source: US20090306062A1, “2,5-Disubstituted Piperidines” (priority 2006, published 2009)
